In ChEMBL document CHEMBL3817824, “Synthesis and biological evaluation of new [1,2,4]triazolo[4,3-a]pyridine derivatives as potential c-Met inhibitors” (Bioorg Med Chem, 2016):
Each block holds one molecule with its values, some of them ahead of it. Calls of active or inactive are those of the source. No cut-off for these calls is given here.

How the values were obtained:
[1] = Cytotoxicity against human SNU5 cells assessed as reduction in cell survival incubated for 3 days by cell titre-glo assay; conditions: SNU-5, 72 h
[2] = molecular target: Hepatocyte growth factor receptor (Homo sapiens, UniProt P08581); assay: Inhibition of c-Met (unknown origin) incubated for 1 hr by spectrophotometric analysis
NCI-H1993 [3] = assay: Antitumor activity against human NCI-H1993 cells xenografted in nude BALB/c mouse assessed as inhibitory rate at 30 mg/kg, ig measured twice every week; type: functional; conditions: NCI-H1993, po, read-out: TGI
[4] = Toxicity in ig dosed nude BALB/c mouse administered as qd treated for 28 days followed by rehabilitation for 28 days; type: organism-based; conditions: in vivo, po
[5] = Antitumor activity against human MKN45 cells xenografted in nude BALB/c mouse assessed as inhibitory rate at 60 mg/kg, ig measured twice every week; type: functional; conditions: MKN-45, po, read-out: TGI
NCI-H1993 [6] = assay: Antitumor activity against human NCI-H1993 cells xenografted in nude BALB/c mouse assessed as inhibitory rate at 60 mg/kg, ig measured twice every week; type: functional; conditions: NCI-H1993, po, read-out: TGI
[7] = Apparent oral clearance in Sprague-Dawley rat at 5 mg/kg; type: ADME, organism-based; conditions: in vivo
[8] = Acute toxicity in ig dosed nude BALB/c mouse administered as qd measured for 14 days; type: organism-based; conditions: in vivo, po
Mus musculus [9] = assay: Acute toxicity in nude BALB/c mouse assessed as clinical pathologies at 300 to 600 mg/kg, ig qd after 28 days; type: organism-based; conditions: in vivo, po, 672 h
Mus musculus [10] = assay: Toxicity in nude BALB/c mouse assessed as effect on body weight at 15 to 225 mg/kg, ig qd for treated for 28 days followed by rehabiliation for 28 days measured during compound dosing and rehabilitation period relative to vehicle control; type: organism-based; conditions: in vivo, po, 672 h
Mus musculus [11] = assay: Toxicity in nude BALB/c mouse assessed as clinical pathologies at 15 to 225 mg/kg, ig qd for treated for 28 days followed by rehabiliation for 28 days measured on day 56 relative to vehicle control; type: organism-based; conditions: in vivo, po, 672 h
NCI-H1993 [12] = assay: Antitumor activity against human NCI-H1993 cells xenografted in nude BALB/c mouse assessed as inhibitory rate at 10 mg/kg, ig measured twice every week; type: functional
[13] = Antitumor activity against human MKN45 cells xenografted in nude BALB/c mouse assessed as inhibitory rate at 10 mg/kg, ig measured twice every week; type: functional; conditions: MKN-45, po, read-out: TGI
[14] = Antitumor activity against human MKN45 cells xenografted in nude BALB/c mouse assessed as inhibitory rate at 30 mg/kg, ig measured twice every week; type: functional; conditions: MKN-45, po, read-out: TGI
Huh-7 = assay: Inhibition of ERK phosphorylation in human HuH7 cells at 100 to 1000 nM after 6 to 24 hrs by Western blot analysis; type: cell-based
[15] = molecular target: RAC-alpha serine/threonine-protein kinase (Homo sapiens, UniProt P31749); conditions: Huh-7, 100 to 1000 nM
Description: Inhibition of AKT phosphorylation in human HuH7 cells at 100 to 1000 nM after 6 to 24 hrs by Western blot analysis

NCI-H1993 [16] = assay: Antitumor activity against human NCI-H1993 cells xenografted in ig dosed nude BALB/c mouse measured twice every week; type: functional, organism-based
MKN-45 = assay: Antitumor activity against human MKN45 cells xenografted in ig dosed nude BALB/c mouse measured twice every week; type: functional, organism-based
[17] = AUC in Sprague-Dawley rat at 5 mg/kg; type: ADME, organism-based; conditions: in vivo
[18] = Apparent volume of distribution during terminal phase in Sprague-Dawley rat at 5 mg/kg; type: ADME, organism-based; conditions: in vivo, read-out: Vz/F
[19] = Cmax in Sprague-Dawley rat at 5 mg/kg; type: ADME, organism-based; set-up: dose 5 mg/kg; conditions: in vivo
[20] = Half life in Sprague-Dawley rat at 5 mg/kg; type: ADME, organism-based; conditions: in vivo
[21] = Mean residence time in Sprague-Dawley rat at 5 mg/kg; type: ADME, organism-based; conditions: in vivo
[22] = Cytotoxicity against human MKN45 cells assessed as reduction in cell survival incubated for 3 days by cell titre-glo assay; type: functional, cell-based; conditions: MKN-45, 72 h
NCI-H1993 [23] = assay: Cytotoxicity against human NCI-H1993 cells assessed as reduction in cell survival incubated for 3 days by cell titre-glo assay; type: functional, cell-based; conditions: NCI-H1993, 72 h
[24] = Cytotoxicity against human MHCC97L cells assessed as reduction in cell survival incubated for 3 days by cell titre-glo assay; type: functional, cell-based; conditions: 72 h
[25] = Cytotoxicity against human HuH7 cells assessed as reduction in cell survival incubated for 3 days by cell titre-glo assay; type: functional, cell-based; conditions: Huh-7, 72 h
NCI-N87 = assay: Cytotoxicity against human NCI-N87 cells assessed as reduction in cell survival incubated for 3 days by cell titre-glo assay; type: functional, cell-based; conditions: NCI-N87, 72 h
NCI-H1975 = assay: Cytotoxicity against human NCI-H1975 cells assessed as reduction in cell survival incubated for 3 days by cell titre-glo assay; type: functional, cell-based; conditions: NCI-H1975, 72 h
A549 = assay: Cytotoxicity against human A549 cells assessed as reduction in cell survival incubated for 3 days by cell titre-glo assay; type: functional, cell-based; conditions: A549, 72 h
[26] = Cytotoxicity against human MHCC97H cells assessed as reduction in cell survival incubated for 3 days by cell titre-glo assay; type: functional, cell-based; conditions: 72 h
[27] = Cytotoxicity against human HCCLM3 cells assessed as reduction in cell survival incubated for 3 days by cell titre-glo assay; type: functional, cell-based; conditions: HCCLM3, 72 h

IC50 [2]: > 1000 nM
Structure (SMILES): CN1C(=O)COc2c1cnc1ccc(Sc3nnc4c(OC(F)F)cc(-c5cnn(C)c5)cn34)cc21
IC50 [1]: > 1000 nM

Structure (SMILES): COCCN1C(=O)COc2c1cnc1ccc(Sc3nnc4ccc(-c5cnn(C)c5)cn34)cc21
IC50 [1]: 19.1 nM

Structure (SMILES): CN1C(=O)COc2c1cnc1ccc(Sc3nnc4ccc(-c5cnn(C)c5)cn34)cc21
IC50 [1]: 3 nM

Structure (SMILES): CN1C(=O)COc2c1cnc1ccc(Sc3nnc4c(F)cc(-c5cnn(C)c5)cn34)cc21.CS(=O)(=O)O
inhibition in vivo at 30 mg/kg (NCI-H1993 [3]): 19.5%
NOAEL at 672 h [4]: 225 mg/kg/day
inhibition in vivo at 60 mg/kg [5]: 61.4%
inhibition in vivo at 60 mg/kg (NCI-H1993 [6]): 24.9%
CL/F [7]: 0.68 mL/min/kg
NOAEL at 336 h [8]: 600 mg/kg/day
Activity (Mus musculus [9]): Non-toxic
Activity (Mus musculus [10]): Non-toxic
Activity (Mus musculus [11]): Non-toxic
inhibition in vivo at 10 mg/kg (NCI-H1993 [12]; NCI-H1993, po, read-out: TGI): 24.4%
inhibition in vivo at 10 mg/kg [13]: 29.5%
inhibition in vivo at 30 mg/kg [14]: 34.2%

Structure (SMILES): Cn1cc(-c2cc(F)c3nnc(Sc4ccc5ncc6c(c5c4)OC[C@H]4CCCN64)n3c2)cn1
IC50 [1]: 29.2 nM

Structure (SMILES): Cn1cc(-c2ccc3nnc(Sc4ccc5ncc6c(c5c4)OCC(=O)N6)n3c2)cn1
IC50 [1]: 85.8 nM

Structure (SMILES): Cn1cc(-c2cc(F)c3nnc(Sc4ccc5ncc6c(c5c4)OC[C@@H]4CCCN64)n3c2)cn1
IC50 [1]: 327 nM

Structure (SMILES): COCCN1C(=O)COc2c1cnc1ccc(Sc3nnc4c(F)cc(-c5cnn(C)c5)cn34)cc21
IC50 [1]: 4.5 nM

Structure (SMILES): Cn1cc(-c2cc(F)c3nnc(Sc4ccc5ncc6c(c5c4)OCC(=O)N6)n3c2)cn1
IC50 [1]: 17.8 nM

Structure (SMILES): Cn1cc(-c2cc(F)c3nnc(Sc4ccc5ncc6c(c5c4)OCCN6C(=O)C4CC4)n3c2)cn1
IC50 [1]: 12.3 nM

Structure (SMILES): CN1C(=O)COc2c1cnc1ccc(Sc3nnc4c(F)cc(-c5cnn(C)c5)cn34)cc21
inhibition (Huh-7): inactive
inhibition [15]: inactive
TGI (NCI-H1993 [16]): Dose-dependent effect
TGI (MKN-45): Dose-dependent effect

AUC [17]: 17300 ng·h/mL
Vd/F [18]: 1.48 L/kg
Cmax [19]: 2370 ng/mL
half-life [20]: 2.97 h
MRT [21]: 4.9 h
CL/F [7]: 5.81 mL/min/kg
Structure (SMILES): Cn1cc(-c2ccc3nnc(C(F)(F)c4ccc5ncccc5c4)n3n2)cn1 [JNJ-38877605]

Structure (SMILES): Cn1cc(-c2ccc3nnc(Sc4ccc5ncccc5c4)n3n2)cn1 [SGX-523]
IC50 [22]: 15 nM
IC50 (NCI-H1993 [23]): 25 nM
IC50 [1]: 3.9 nM
IC50 [24]: 18 nM
IC50 [25]: > 10000 nM
IC50 (NCI-N87): > 10000 nM
IC50 (NCI-H1975): > 10000 nM
IC50 (A549): > 10000 nM
IC50 [26]: 11 nM
IC50 [27]: 24 nM
TGI (NCI-H1993 [12]): inactive
inhibition in vivo at 10 mg/kg [13]: 11.2%
